ChEMBL document CHEMBL5728937, “Substituted tetrahydroquinolinone compounds as ROR gamma modulators” (2022)

Molecular target: T1, Nuclear receptor ROR-gamma (Homo sapiens, UniProt P51449)
T1 sequence (P51449 whole entry): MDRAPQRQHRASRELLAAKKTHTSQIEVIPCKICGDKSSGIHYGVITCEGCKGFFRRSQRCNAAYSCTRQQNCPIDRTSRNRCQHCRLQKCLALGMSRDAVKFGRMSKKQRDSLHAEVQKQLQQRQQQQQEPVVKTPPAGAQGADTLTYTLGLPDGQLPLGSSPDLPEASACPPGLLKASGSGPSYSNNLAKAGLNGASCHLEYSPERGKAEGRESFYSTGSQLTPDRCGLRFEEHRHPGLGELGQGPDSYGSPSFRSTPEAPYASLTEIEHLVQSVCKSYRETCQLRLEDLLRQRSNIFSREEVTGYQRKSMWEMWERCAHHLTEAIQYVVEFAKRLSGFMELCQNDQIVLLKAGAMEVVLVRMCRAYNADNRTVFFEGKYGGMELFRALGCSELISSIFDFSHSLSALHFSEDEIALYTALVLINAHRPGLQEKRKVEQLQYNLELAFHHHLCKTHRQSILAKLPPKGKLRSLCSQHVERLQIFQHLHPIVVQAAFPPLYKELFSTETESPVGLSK
Experiment: Radio-Ligand Binding Assay: ROR gamma radioligand binding was performed using 3H 25-Hydroxycholesterol in a competitive displacement assay using dextran charcoal method. Using 5 nM 3H 25-Hydroxycholesterol with 300 ng RORγ LBD (in house expressed in E. coli) along with the compound were incubated in the binding buffer (50 mM HEPES, pH 7.5, 150 mM NaCl, 0.01% BSA and 5 mM MgCl2) for 30 min at room temperature. Then dextran-charcoal mixture (0.5% charcoal: 0.05% dextran) was used for separation and the supernatant was read on the Perkin Elmer Trilux Microbeta counter. Dose response curves were generated for 10 compound concentrations using GraphPad Prism software Version 5 (San Diego, Calif., USA) using non-linear regression curve fit for sigmoidal dose response (variable slope).

Compound: CCS(=O)(=O)c1ccc(CC(=O)Nc2cc(C)c3c(n2)CCC(C)(c2ccc(OC)nn2)C3=O)cc1 (single isomer, unassigned)
- IC50: > 300 nM
